These are literature values, as cited in patent US20100192311A1, “METHOD FOR PERFUMING FABRICS” (priority 2009, published 2010).

Where a name gives a salt, the structure may show the parent alone.

The conditions of series [1]: in water.
In series [2] the test system is typical Gram negative and positive bacteria, fungi and yeasts. As to conditions: level from about 0.001% to about 0.5% by weight of the usage composition.

Turning to `OCCOc1ccccc1` [2-phenoxyethanol], the water solubility entry in series [1] is given as “about 2.67%”. With `O=[N+]([O-])C1(Br)COCOC1` [Bronidox L, 5-bromo-5-nitro-1,3-dioxane], the water solubility result in series [1] is given as “about 0.46%”. `CC1(C)C(=O)N(CO)C(=O)N1CO` [DMDM hydantoin, 1,3-bis(hydroxymethyl)-5,5-dimethyl-2,4-imidazolidinedione]: the water solubility result in series [1] is listed as “more than 50%”. As to `OCCc1ccccc1` [Phenyl Ethyl Alcohol, 2-phenylethanol], the water solubility entry in series [1] is reported as “about 2%”. `Cn1sc2c(c1=O)CCC2` [Promexal, 2-methyl-4,5-trimethylene-4-isothiazolin-3-one]: the “effective against typical Gram negative and positive bacteria, fungi and yeasts” value in series [2] is listed as “effective”.

Consider `O=c1[nH]sc2ccccc12` [Proxel, 1,2-benzisothiazolin-3-one], for which the “effective against typical Gram negative and positive bacteria, fungi and yeasts” value in series [2] was “effective”. Consider `OCc1ccccc1` [benzyl alcohol], for which the water solubility result in series [1] is given as “about 4%”. With `[H]/N=C(\N/C(=N/[H])NCCCCCCNC(=N)NC(=N)Nc1ccc(Cl)cc1)Nc1ccc(Cl)cc1` [chlorhexidine diacetate salt, 1,1′-hexamethylene bis(5-(p-chlorophenyl)biguanide), reference compound], the water solubility result in series [1] is “about 1.8%”.

As for `[H]/N=C(\N/C(=N/[H])NCCCCCCNC(=N)NC(=N)Nc1ccc(Cl)cc1)Nc1ccc(Cl)cc1` [chlorhexidine digluconate salt, 1,1′-hexamethylene bis(5-(p-chlorophenyl)biguanide), reference compound], in series [1], the water solubility entry was “about 70%”. `CC(C)(O)C(Cl)(Cl)Cl` [chlorobutanol, 1,1,1-Trichloro-2-methylpropan-2-ol]: the water solubility result in series [1] was “about 0.8%”.

As for `[Na+].[O-][n+]1ccccc1[S-]` [sodium pyrithione], the water solubility result in series [1] was “about 50%”.
